Among the data in patent EP4725941A1, “ARYLAMIDE DERIVATIVE HAVING ANTITUMOR ACTIVITY” (priority 2020, dated 2021) are IC50 and microsomal CLint values, retold here.

For orientation: IC50 means the concentration at which inhibition is half-maximal. The term microsomal CLint denotes a measure of how fast metabolising enzymes remove a compound, apart from limits set by blood flow.

One series concerns the target T1, MEK1 (Homo sapiens, UniProt Q02750).
T1 construct: purchased Thermo Fisher Scientific Inc. (MEK1, CRAF); Carna Biosciences, Inc. (ERK2)
The series can be described thus: MEK1-inhibiting activity, fluorescent polarization method (CRAF/MEK1/ERK2 cascade, IMAP). The class given is biochemical. The note with it: Table 3; read-out: MEK1 IC50. How it is done:
The MEK1-inhibiting activity of the compounds listed in Table 3 below were evaluated by the fluorescent polarization method as described below.

In a further series the target is T2, BRAF (Homo sapiens, UniProt P15056).
T2 construct: purchased Eurofins Genomics KK; (BRAF); Thermo Fisher Scientific Inc. (MEK1)
The series can be described thus: BRAF-inhibiting activity, time-resolved fluorescence-fluorescence resonance energy transfer assay. Particulars: read-out: BRAF IC50; Table 3. The series is classed as biochemical. As for the experimental part: The BRAF-inhibiting activity of the compounds listed in Table 3 below was evaluated by the time-resolved fluorescence-fluorescence resonance energy transfer assay as described below.

In the next series the test system is A549. Kind of series: Cell proliferation-inhibiting activity (ATP in viable cells, CellTiter-Glo), A549. The class given is cell-based, human. The note with it: A549, 96 h; human lung cancer cells, 4 days; read-out: A549 IC50. (Cellular ATP, detected with luciferase, serves as a proxy for viable cell number.)
The next series concerns NCI-H2122. Kind of series: Cell proliferation-inhibiting activity (ATP in viable cells, CellTiter-Glo), NCI-H2122. The series is classed as cell-based, human. Particulars: NCI-H2122, 96 h; human lung cancer cells, 4 days; read-out: NCI-H2122 IC50.
Series [1] is described as follows: Human liver microsome stability. The note with it: human liver microsomes, pH 7.4. The series is classed as in vitro ADME. (In general: Microsomes from liver hold many membrane-bound enzymes, among them those of drug oxidation.)

T2 sequence (P15056 417-766 limits assumed): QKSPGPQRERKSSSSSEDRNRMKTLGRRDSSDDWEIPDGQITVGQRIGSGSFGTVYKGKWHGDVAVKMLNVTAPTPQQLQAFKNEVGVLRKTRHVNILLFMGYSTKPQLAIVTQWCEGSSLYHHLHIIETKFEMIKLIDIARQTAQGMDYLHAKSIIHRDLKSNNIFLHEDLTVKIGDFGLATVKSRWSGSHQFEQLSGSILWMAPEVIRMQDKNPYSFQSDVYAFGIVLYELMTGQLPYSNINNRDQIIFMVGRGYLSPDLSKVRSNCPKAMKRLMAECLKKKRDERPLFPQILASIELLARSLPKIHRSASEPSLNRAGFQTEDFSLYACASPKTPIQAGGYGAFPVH
T1 sequence (Q02750 whole entry): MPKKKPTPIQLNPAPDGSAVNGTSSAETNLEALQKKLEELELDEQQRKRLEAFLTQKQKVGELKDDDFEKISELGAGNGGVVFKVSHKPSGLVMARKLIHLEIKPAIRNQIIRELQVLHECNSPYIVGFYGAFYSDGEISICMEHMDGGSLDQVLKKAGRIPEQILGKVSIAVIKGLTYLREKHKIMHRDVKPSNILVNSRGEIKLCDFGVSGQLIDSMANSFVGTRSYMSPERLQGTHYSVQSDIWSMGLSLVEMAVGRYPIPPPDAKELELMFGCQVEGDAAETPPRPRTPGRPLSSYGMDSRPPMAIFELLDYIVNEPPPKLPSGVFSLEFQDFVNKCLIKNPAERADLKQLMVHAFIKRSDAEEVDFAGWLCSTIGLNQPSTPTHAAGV

Take `CNS(C)(=O)=Nc1cc(Cc2cc(C(N)=O)c(Nc3ccc(I)cc3F)c(F)c2F)ccn1` (centres unmarked) [Compound C-4, 3,4-Difluoro-2-(2-fluoro-4-iodoanilino)-5-[[2-[[methyl-(methylamino)-oxo-λ6-sulfanylidene]amino]pyridin-4-yl]methyl]benzamide]: the IC50 at MEK1 was 224 nM; on BRAF, 23 nM; in the series on A549, 7 nM; with NCI-H2122, 43 nM. Also, the microsomal CLint at 0.99 µM in series [1] was 40 µL/min/mg.
On the same counts, the results for `CNS(=O)(=O)Nc1nccc(Cc2cc(C(N)=O)c(Nc3ccc(I)cc3C)c(F)c2F)c1F` [Compound C-5, 3,4-Difluoro-5-[[3-fluoro-2-(methylsulfamoylamino)pyridin-4-yl]methyl]-2-(4-iodo-2-methylanilino)benzamide] are 56 nM, 3 nM, 22 nM, 4 nM and 29 µL/min/mg.
For the compound `COCCNS(=O)(=O)Nc1cccc(Cc2cc(C(N)=O)c(Nc3ccc(I)cc3F)c(F)c2F)c1F` [Compound D-1, 3,4-Difluoro-2-(2-fluoro-4-iodoanilino)-5-[[2-fluoro-3-(2-methoxyethylsulfamoylamino)phenyl]methyl]benzamide], the IC50 stood at 96 nM on MEK1, 1 nM at BRAF, 9 nM in the series on A549 and 5 nM in the series on NCI-H2122. In series [1], this compound showed a microsomal CLint at 0.99 µM of 25 µL/min/mg.
In the same order, the values of `COCC(C)(C)NS(=O)(=O)Nc1cccc(Cc2cc(C(N)=O)c(Nc3ccc(I)cc3F)c(F)c2F)c1F` [Compound D-2, 3,4-Difluoro-2-(2-fluoro-4-iodoanilino)-5-[[2-fluoro-3-[(1-methoxy-2-methylpropan-2-yl)sulfamoylamino]phenyl]methyl]benzamide] are 242 nM, 3 nM, 9 nM, 5 nM and 103 µL/min/mg.
Regarding `NC(=O)c1cc(Cc2cccc(NS(=O)(=O)NC[C@H]3CCCO3)c2F)c(F)c(F)c1Nc1ccc(I)cc1F` [Compound D-3, 3,4-Difluoro-2-(2-fluoro-4-iodoanilino)-5-[[2-fluoro-3-[[(2R)-oxolan-2-yl]methylsulfamoylamino]phenyl]methyl]benzamide], the IC50 at MEK1 is 130 nM; at BRAF it was 1 nM; with A549, 26 nM; with NCI-H2122 it was 12 nM. Also, the microsomal CLint at 0.99 µM in series [1] is 68 µL/min/mg.
`CCS(=O)(=O)Nc1cccc(Cc2cc(C(=O)NC3CC3)c(Nc3ccc(I)cc3F)c(F)c2F)c1F` [Compound D-8, N-Cyclopropyl-5-[[3-(ethylsulfonylamino)-2-fluorophenyl]methyl]-3,4-difluoro-2-(2-fluoro-4-iodoanilino)benzamide]: the IC50 at MEK1 worked out at 161 nM; at BRAF, 21 nM; in the series with A549, 66 nM; with NCI-H2122, 8 nM. In series [1], the intrinsic clearance (microsomal CLint) at 0.99 µM is 20 µL/min/mg.
Turning to `NC(=O)c1cc(Cc2cccc(NS(N)(=O)=O)c2F)c(F)c(F)c1Nc1ccc(I)cc1F` [Compound E-8, 3,4-Difluoro-2-(2-fluoro-4-iodoanilino)-5-[[2-fluoro-3-(sulfamoylamino)phenyl]methyl]benzamide], the IC50 on MEK1 turned out to be 137 nM; at BRAF, 2 nM; with A549, 3 nM; with NCI-H2122, 2 nM. The compound further gave a microsomal CLint at 0.99 µM in series [1] of 1 µL/min/mg.
As for `NC(=O)c1cc(Cc2cccc(NS(=O)(=O)CCCF)c2F)c(F)c(F)c1Nc1ccc(I)cc1F` [Compound E-15, 3,4-Difluoro-5-[[2-fluoro-3-(3-fluoropropylsulfonylamino)phenyl]methyl]-2-(2-fluoro-4-iodoanilino)benzamide], the IC50 on MEK1 was 287 nM; at BRAF it was 4 nM; with A549, 20 nM; in the series on NCI-H2122, 7 nM. This compound also showed a microsomal CLint at 0.99 µM in series [1] of 21 µL/min/mg.
On the same counts, the results for `CCCS(=O)(=O)Nc1cccc(Cc2cc(C(N)=O)c(Nc3ccc(I)cc3F)c(F)c2F)c1F` [Compound E-18, 3,4-Difluoro-2-(2-fluoro-4-iodoanilino)-5-[[2-fluoro-3-(propylsulfonylamino)phenyl]methyl]benzamide] are 366 nM, 5 nM, 7 nM, 8 nM and 29 µL/min/mg.
For `NC(=O)c1cc(Cc2cccc(NS(=O)(=O)C3CCC3)c2F)c(F)c(F)c1Nc1ccc(I)cc1F` [Compound E-20, 5-[[3-(Cyclobutylsulfonylamino)-2-fluorophenyl]methyl]-3,4-difluoro-2-(2-fluoro-4-iodoanilino)benzamide], the IC50 is 467 nM on MEK1, 13 nM at BRAF, 37 nM in the series on A549 and 11 nM in the series with NCI-H2122. This compound yielded a microsomal CLint at 0.99 µM in series [1] of 18 µL/min/mg.
In the same order, the values of `NC(=O)c1cc(Cc2cccc(NS(=O)(=O)C3COC3)c2F)c(F)c(F)c1Nc1ccc(I)cc1F` [Compound E-21] are 189 nM, 24 nM, 30 nM, 14 nM and 13 µL/min/mg.
On the same counts, the results for `CNS(=O)(=O)Nc1cccc(Cc2cc(C(N)=O)c(Nc3ccc(I)cc3F)c(F)c2F)c1` [Compound F-1, 3,4-Difluoro-2-(2-fluoro-4-iodoanilino)-5-[[3-(methylsulfamoylamino)phenyl]methyl]benzamide] are 246 nM, 5 nM, 7 nM, 3 nM and 10 µL/min/mg.
Consider `COCCS(=O)(=O)Nc1cccc(Cc2cc(C(N)=O)c(Nc3ccc(I)cc3F)c(F)c2F)c1` [Compound F-3, 3,4-Difluoro-2-(2-fluoro-4-iodoanilino)-5-[[3-(2-methoxyethylsulfonylamino)phenyl]methyl]benzamide], for which the IC50 at MEK1 amounted to 380 nM; on BRAF it was 5 nM; with A549 it was 8 nM; in the series with NCI-H2122, 24 nM. The compound also displayed a microsomal CLint at 0.99 µM in series [1] of 28 µL/min/mg.
On to `CNS(=O)(=O)Nc1nccc(Cc2cc(C(=O)NOC)c(Nc3ccc(Cl)cc3F)c(F)c2F)c1F` [Compound G-4, 2-(4-Chloro-2-fluoroanilino)-3,4-difluoro-5-[[3-fluoro-2-(methylsulfamoylamino)pyridin-4-yl]methyl]-N-methoxybenzamide], for which the IC50 on MEK1 came to 53 nM; at BRAF, 4 nM; in the series with A549, 28 nM; in the series with NCI-H2122, 12 nM. In series [1], this compound gave a microsomal CLint at 0.99 µM of 26 µL/min/mg.
As to `CNS(=O)(=O)Nc1nccc(Cc2cc(C(N)=O)c(Nc3ccc4sccc4c3)c(F)c2F)c1F` [Compound H-2, 2-(1-Benzothiophen-5-ylamino)-3,4-difluoro-5-[[3-fluoro-2-(methylsulfamoylamino)pyridin-4-yl]methyl]benzamide], the IC50 at MEK1 was found to be 49 nM; at BRAF, 2 nM; in the series on A549 it was 31 nM; with NCI-H2122 it was 16 nM. Further, in series [1], the microsomal CLint at 0.99 µM amounted to 77 µL/min/mg.
On the same counts, the results for `CNS(=O)(=O)Nc1cccc(Cc2cc(C(N)=O)c(Nc3ccc(I)cc3F)c(F)c2F)n1` [Compound H-5, 3,4-Difluoro-2-(2-fluoro-4-iodoanilino)-5-[[6-(methylsulfamoylamino)pyridin-2-yl]methyl]benzamide] are 115 nM, 2 nM, 6 nM, 4 nM and 26 µL/min/mg.
In the same order, the values of `CCNS(=O)(=O)Nc1nccc(Cc2cc(C(N)=O)c(Nc3ccc(I)cc3F)cc2F)c1F` [Compound I-2, 5-[[2-(Ethylsulfamoylamino)-3-fluoropyridin-4-yl]methyl]-4-fluoro-2-(2-fluoro-4-iodoanilino)benzamide] are 47 nM, 3 nM, 25 nM, 11 nM and 12 µL/min/mg.
As to `CCS(=O)(=O)Nc1cccc(Cc2cc(C(=O)NC3CC3)c(Nc3ccc(I)cc3F)n(C)c2=O)c1F` [Compound K-8, N-Cyclopropyl-5-[[3-(ethylsulfonylamino)-2-fluorophenyl]methyl]-2-(2-fluoro-4-iodoanilino)-1-methyl-6-oxopyridine-3-carboxamide], the IC50 at MEK1 came to 209 nM; at BRAF it was 14 nM; in the series with A549, 68 nM; in the series with NCI-H2122, 29 nM. For the same compound, the microsomal CLint at 0.99 µM in series [1] was determined as 103 µL/min/mg.
Consider `CNS(=O)(=O)Nc1nccc(Cn2cc(C(N)=O)c(Nc3ccc(I)cc3F)c(F)c2=O)c1F` [Compound N-1, 5-Fluoro-4-(2-fluoro-4-iodoanilino)-1-[[3-fluoro-2-(methylsulfamoylamino)pyridin-4-yl]methyl]-6-oxopyridine-3-carboxamide], for which the IC50 is 1 nM on MEK1, 2 nM on BRAF, 20 nM in the series with A549 and 28 nM in the series on NCI-H2122. The intrinsic metabolic clearance (microsomal CLint) at 0.99 µM in series [1] came out at 8 µL/min/mg.
